This note sets out measurements from patent US20240366649A1, “4-ETHYNYL-3-HYDROXY-TETRAHYDROFURANYL-ADENINE PHOSPHORAMIDATES AND RELATED COMPOUNDS AND THEIR USE IN TREATING MEDICAL CONDITIONS” (ROME THERAPEUTICS, INC., priority 2021, published 2024).

Experiment [1] has as its system IFN-β production in PBMCs. Briefly: Decitabine-stimulated human PBMC assay. The experiment is classed as cell-based. The note with it: anti-CD3/anti-CD28, 10 μM decitabine, 5 days. How it is done: EasySep buffer (32 mL, Stem Cell, cat. #20144) was used to dilute 8 mL of LRSC buffy coat (from fresh Leukopak) with gentle mixing. The diluted buffy coat (20 mL) was transferred into each of two SepMate 50 tubes, and the tubes were filled with 15 mL of Lyphoprep (Stem Cell, ct. #07851) density gradient. The SepMate tubes were then centrifuged at 1200G for 10 minutes at room temperature with the brake on. The top layer of supernatant was collected in SepMate tubes by quickly pouring it into a new 50 mL conical tube. The PBMCs were washed with EasySep buffer ×2 by centrifuging at 300G for 5 minutes. The cells were resuspended in 30 mL of EasySep and centrifuged at 100G for 5 minutes with the brake off, and the platelets were removed. The cells were then resuspended in 6 mL of 1×RBC lysis buffer (InvitroGen) and incubated at 37° C. for 5 minutes. Then, 25 mL of EasySep buffer was mixed into the tube and it was centrifuged at 300G for 5 minutes. The cells were resuspended in 10 mL of EasySep buffer and the cells were then counted with Cellometer (AO/PI). The PBMCs were resuspended in RPMI1640 (ThermoFisher)+10% FBS (HyClone)+p/s at 3×10^6/mL. The PBMCs (100 μL, 300 k PBMCs) were then seeded in a 96-well flat bottom microplate (Corning) that had been precoated with 100 μL of anti-CD3 antibody (10 μg/mL in PBS, Biolegend) or PBS at 4° C., one day before the assay was commenced. […]

The test system of experiment [2] is Esophageal cancer KYSE-410 cells. Briefly: Cancer cell viability assay with 3D cell colonies (CellTiter-Glo), KYSE-410. Format: cell-based. Conditions: KYSE-410, 3D methylcellulose colonies, 7 days. How it is done:
(§1) Cancer cell lines were cultured in the following media: • Ovarian cancer OVCAR-8 cells—RPMI media containing 10% FBS • Ovarian cancer SK-OV-3 cells—McCoy's 5a media containing 10% FBS • Ovarian cancer SW756 cells—L-15 (100% air)+10% FBS • Esophageal cancer TE-1 cells—RPMI-1640+10% FBS • Esophageal cancer KYSE-410 cells—RPMI-1640+5˜10% FBS • Esophageal cancer KYSE-70 cells—RPMI-1640+10% h.i.FBS. • Pharyngeal cancer FaDu cells—MEM+0.01 mM NEAA+10% FBS
(§2) Cell colony formation was tested using a 3D methylcellulose-based CellTiter-Glo (CTG) viability assay (Cat. No: G7573, Promega). Briefly, cells were inoculated into 96-well plates (at 1,500 cells per well) into a solution of 0.65% methylcellulose in growth media and incubated overnight at 37° C. in 5% CO2. The next day, serially diluted test compound (islatravir, 4′-ethynyl-2-fluoro-2′-deoxyadenosine) or positive control (cisplatin, Cat. No. 6J015A89, Qilu Pharma) were added at the indicated concentrations, and the cells were incubated for 7 days. On day seven, 100 μL of CTG reagent was added, and the plates were incubated at room temperature for 20 min. Luminescence was read on an Envision Multi Label Reader according to manufacturer's instructions. IC50 values were determined using the following calculation: […]

Experiment [3] has as its system Esophageal cancer KYSE-70 cells. The experiment in a line: Cancer cell viability assay with 3D cell colonies (CellTiter-Glo), KYSE-70. The note with it: KYSE-70, 3D methylcellulose colonies, 7 days. The experiment is classed as cell-based. Here is the method: as §1, §2
In general terms: In ATP-based viability assays light output follows the ATP content of the culture.

The subject of experiment [4] is Esophageal cancer TE-1 cells. The experiment in a line: Cancer cell viability assay with 3D cell colonies (CellTiter-Glo), TE-1. The experiment is classed as cell-based. The note with it: TE-1, 3D methylcellulose colonies, 7 days. How it is done: as §1, §2
The test system of experiment [5] is Ovarian cancer SK-OV-3 cells. The experiment in a line: Cancer cell viability assay with 3D cell colonies (CellTiter-Glo), SK-OV-3. Format: cell-based. The note with it: SK-OV-3, 3D methylcellulose colonies, 7 days. Here is the method: as §1, §2
The test system of experiment [6] is Ovarian cancer SW756 cells. Briefly: Cancer cell viability assay with 3D cell colonies (CellTiter-Glo), SW756. Format: cell-based. The note with it: SW756, 3D methylcellulose colonies, 7 days. Here is the method: as §1, §2
For experiment [7], the system named is Pharyngeal cancer FaDu cells. The experiment in a line: Cancer cell viability assay with 3D cell colonies (CellTiter-Glo), FaDu. The experiment is classed as cell-based. Conditions: 3D methylcellulose colonies, 7 days. How it is done: as §1, §2
The subject of experiment [8] is Ovarian cancer OVCAR-8 cells. The experiment in a line: Cancer cell viability assay with 3D cell colonies (CellTiter-Glo), OVCAR-8. The experiment is classed as cell-based. The note with it: OVCAR-8, 3D methylcellulose colonies, 7 days. Here is the method: as §1, §2
In experiment [9] the target is LINE1 reverse transcriptase (Homo sapiens, UniProt O00370). The experiment in a line: Homogeneous time-resolved fluorescence (HTRF) LINE1 RT assay. Format: biochemical. On the set-up: recombinant MBP-tagged LINE1 protein (238-1061); MBP; made in house. Conditions: recombinant MBP-tagged LINE1 protein (238-1061), read-out: IC50 for inhibiting LINE1 reverse transcriptase. How it is done:
The LINE1 reverse transcriptase homogeneous time-resolved fluorescence (HTRF) assay was performed with recombinant MBP-tagged LINE1 protein (238-1061) (generated and purified according to procedures in Dai L. et al. BMC Biochemistry 2011; 12:18) in a 384-well format. Test compound was serially diluted in DMSO and further diluted in the assay buffer (50 mM Tris-HCl, 50 mM KCl, 10 mM MgCl2, 10 mM DTT, pH 8.1) to achieve a final DMSO concentration of 1%. The serially diluted compound was mixed with 64 ng/well of LINE1 enzyme, 5 nM of pre-annealed template/biotin-primer pair (synthesized at Generay Biotechnology), 10 nM of Fluorescein-12-dATP fluorescent probe (Perkin Elmer), and 1 μM dGTP/dCTP/dTTP (Thermo Fisher Scientific) in the assay buffer. The template/biotin-primer sequences were as follows:
After incubating at 25° C. for 60 minutes, the detection reagent (20 mM EDTA with streptavidin-terbium cryptate, Cisbio Bioassay) in the PPI buffer (Cisbio Bioassay) was added, and the mixture was incubated at 25° C. for 30 minutes. At the end of the incubation, fluorescence was read at ex/em=337/485 nm and ex/em=337/520 nm on an Envision 2104 plate reader (Perkin Elmer). The fluorescence ratio at 520/485 nm was used for the calculation. […] The IC50 was calculated by fitting the compound dose inhibition curve with a 4-parameter non-linear regression equation.
For orientation: In TR-FRET formats the signal depends on donor and acceptor labels being close together.

Experiment [10] concerns the target T1, HERV-K reverse transcriptase (Homo sapiens, UniProt V9H0F6).
T1 construct: fused on or other part: C-terminal 8His tag
Briefly: Homogeneous time-resolved fluorescence (HTRF) HERV-K RT assay. Format: biochemical. Conditions: HERV-K reverse transcriptase (2-596)-8His protein, read-out: IC50 for inhibiting HERV-K reverse transcriptase. Here is the method:
The HERV-K reverse transcriptase homogeneous time-resolved fluorescence (HTRF) assay was performed in a 384-well format with HERV-K reverse transcriptase (2-596)-8His protein. Baculoviruses were created using Bac-to-Bac technology (Invitrogen). pFastBac donor plasmids containing HERV-K reverse transcriptase sequence (NCBI GenBank number AAC63291.1, J. Virology (1999) Vol. 73, No. 3, pp. 2365-2375) were transformed into DH10 Bac cells following the manufacturer's instructions. Recombinant bacmids were then isolated clonally and transfected into SF9 cells with lipofectin. HERV-K reverse transcriptase was expressed in the SF9 insect cells and then purified using immobilized metal affinity chromatography (IMAC) followed by size-exclusion chromatography (SEC). […]
After incubating at 25° C. for 30 minutes, the detection reagent 20 mM EDTA with streptavidin-terbium cryptate (Cisbio Bioassay) in the PPI buffer (Cisbio Bioassay) was added, and the mixture was incubated at 25° C. for 60 minutes. At the end of the incubation, fluorescence was read at ex/em=337/485 nm and ex/em=337/520 nm on an Envision 2104 plate reader (Perkin Elmer). The fluorescence ratio at 520/485 nm was used for the calculation. […] The IC50 was calculated by fitting the compound dose inhibition curve with a 4-parameter non-linear regression equation.

T1 sequence (V9H0F6 entry or part of it): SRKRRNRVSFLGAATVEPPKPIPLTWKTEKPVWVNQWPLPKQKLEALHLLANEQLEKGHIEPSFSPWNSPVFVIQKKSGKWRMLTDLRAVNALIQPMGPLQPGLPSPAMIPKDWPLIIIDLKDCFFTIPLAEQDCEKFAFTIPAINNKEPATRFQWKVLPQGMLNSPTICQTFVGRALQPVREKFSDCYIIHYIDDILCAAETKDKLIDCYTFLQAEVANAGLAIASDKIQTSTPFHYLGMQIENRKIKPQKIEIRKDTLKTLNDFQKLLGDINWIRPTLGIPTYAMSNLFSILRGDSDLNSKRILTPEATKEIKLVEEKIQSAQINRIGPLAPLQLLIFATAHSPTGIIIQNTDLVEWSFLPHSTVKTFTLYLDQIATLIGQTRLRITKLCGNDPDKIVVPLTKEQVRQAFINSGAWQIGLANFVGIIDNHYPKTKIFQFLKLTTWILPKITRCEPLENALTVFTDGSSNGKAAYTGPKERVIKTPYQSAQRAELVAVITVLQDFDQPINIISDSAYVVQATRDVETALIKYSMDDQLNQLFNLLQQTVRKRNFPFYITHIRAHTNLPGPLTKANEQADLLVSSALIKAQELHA

With `C#C[C@]1(CO)O[C@@H](n2cnc3c(N)nc(Cl)nc32)C[C@@H]1O` [4′-ethynyl-2-chloro-2′-deoxyadenosine], the “production of IFN-β” value in experiment [1] is given as “activated production of IFN-β”.

Usually IC50 stands for the concentration needed to halve the response being measured. Consider `N.N.[Cl][Pt][Cl]` [Cisplatin, cisplatin], for which the IC50 in experiment [2] was greater than 30000 nM; in experiment [3] it was no more than 10000 nM; in experiment [4] it was no more than 10000 nM; in [5], no more than 10000 nM; in experiment [6] it was no more than 10000 nM; in experiment [7], no more than 10000 nM. The IC50 in [8] was no more than 10000 nM.

`C#C[C@]1(COP(=O)(O)OP(=O)(O)OP(=O)(O)O)O[C@@H](n2cnc3c(N)nc(F)nc32)C[C@@H]1O` [drawing 277]: in [9], the IC50 was found to be 23 nM.

Regarding `C#C[C@]1(COP(=O)(O)OP(=O)(O)OP(=O)(O)O)O[C@@H](n2cnc3c(N)nc(Cl)nc32)C[C@@H]1O` [drawing 278], the IC50 in [9] came out at 20 nM.

As to `C#C[C@]1(COP(=O)(O)OP(=O)(O)OP(=O)(O)O)O[C@@H](n2cnc3c(N)nc(F)nc32)C[C@@H]1O` [drawing 279], the IC50 in experiment [10] stood at 17.8 nM.

`C#C[C@]1(COP(=O)(O)OP(=O)(O)OP(=O)(O)O)O[C@@H](n2cnc3c(N)nc(Cl)nc32)C[C@@H]1O` [drawing 280]: the concentration for half-maximal inhibition (IC50) in [10] was 310 nM.
